These results are taken from patent US5831001A, “Treatment of herpesvirus infection” (priority 1995, dated 1998).

For one data set, the system named is HSV. As to the kind of experiment: plaque reduction assay, inhibition of HSV replication. It is filed as cell-based. The settings on record: for Virus titer: pretreated Veto cell monolayers, plaques counted after 2 to 3 days. The protocol:
Selected compounds were first formulated as 10 mM stocks in water for in vitro and call culture procedures. Then stocks are then diluted into buffers used for specific assays, or into cell culture media. For animal studies peptides are diluted into phosphate buffer saline,
The following procedures were then used to determine inhibitory effects of compounds on the replication of HSV. First, confluent monolayers of Veto cells (continuous passage cell line derived from African Green Monkeys) in 24 well cell culture plates were treated with specified concentrations of peptide for 25 hours. This was accomplished by diluting the stock peptide solution in growth medium used to overlay the monolayers, i.e. growth medium containing 10% fetal bovine serum and 10 ug/ml gentamicin in Dulbecco's MEM (DMEM).
Virus was then allowed to adsorb for 1 hour at 37° C. The virus inoculum was removed and the monolayers are overlayed with DMEM containing 2% FBS, 10 ug/ml gentamicin and specified concentration of peptide. Virus was next allowed to replicate for 2 to 3 days until the plaques were judged to be well developed, and then the monolayers were fixed and stained with a solution of 1% crystal violet in 1% formaldehyde, 70% ethanol. Finally, plaques (each representing a single viable virion) were counted and checked microscopically.
In general terms: In a plaque reduction assay, fewer plaques than in the control indicate reduced infectivity or spread.

Take `CC(=O)N[C@H](CCCNC(=N)N)C(=O)N[C@H](CCCNC(=N)N)C(=O)N[C@H](CCCNC(=N)N)C(=O)N[C@H](CCCNC(=N)N)C(=O)N[C@H](CCCNC(=N)N)C(=O)N[C@H](CCCNC(=N)N)C(=O)N[C@H](CCCNC(=N)N)C(=O)N[C@H](CCCNC(=N)N)C(=O)N[C@H](CCCNC(=N)N)C(N)=O` [compound 4C, acetyl-[D-Arg]9 -NH2]: the “inhibition of viral replication” value with HSV (at the concentration tested (5uM)) is at least 95%. The Virus titer is given as 30,000 pfu/ml with HSV (peptide concentration 0.5 uM) and 11,000 pfu/ml with HSV (peptide concentration 5.0 uM). Moreover, the “inhibition of host cell replication” value with Veto cells is “no apparent inhibition”.
